From US20050106114A1, “Process for improving the sun protection factor of cellulosic fibre material” (priority 2002, published 2005)

Experiments:
[1] = Sun Protection Factor of treated fabric, AS/NZS 4399:1996, Melbourne sunlight; settings: Cotton-cretone; bleached, then fresh bath with 0.01% UV absorber (102) followed by 0.2% compound (101), relative to fabric weight; average of 4 measurements
Text: (§1) The sun protection factor is defined as the ratio of the harmful dose of UV energy on protected skin to the harmful dose of UV energy on unprotected skin. Accordingly, a sun protection factor is also a measure of the transmissivity of fibre materials untreated and of those treated with FWA's and reactive UV absorbers described in this invention.
(§2) The sun protection factor can be determined, for example, by the method described by B. L. Diffey and J.Robson in J.Soc.Cosmet.Chem., 40, 127-133 (1989).
(§3) Two samples each of 10 g. of a pre-washed cellulose fabric (cotton cretonne) are treated in an AHIBA® dyeing machine for 60 minutes at 95° C. at a liquor ratio of 1:20 in two different aqueous liquors.
(§4) A) 3.0 ml/l hydrogen peroxide 35% • 2.0 ml/l sodium silicate 38° Bé • 2.0 ml/l caustic soda 36° Bé • 0.5 g/l ULTRAVON EL
(§5) B) The same liquor as in A), but containing additionally • 0.012% compound of formula (101) according to Example 1.
Two samples each of 10 g. of a pre-washed cellulose fabric (cotton cretonne or cotton poplin, respectively) are treated in an AHIBA® dyeing machine for 60 minutes at 95° C. at a liquor ratio of 1:20 in an aqueous liquor containing:
The samples are then treated for 10 minutes at 40° C. at a liquor ratio of 1:20 in a fresh bath containing 0.01% (relative to the weight of the fabric) of the compound of the formula [drawing 25] […]

[2] = as above; settings: Cotton-Poplin; bleached, then fresh bath with 0.01% UV absorber (102) followed by 0.2% compound (101), relative to fabric weight; average of 4 measurements
Text: as §1, §2, §3, §4, §5
If the procedure of Example 9 is repeated, but with samples of different cellulose fabric (cotton poplin) the results of the following table are obtained.
Two samples each of 10 g. of a pre-washed cellulose fabric (cotton cretonne or cotton poplin, respectively) are treated in an AHIBA® dyeing machine for 60 minutes at 95° C. at a liquor ratio of 1:20 in an aqueous liquor containing: […]

For CCOc1ccc(NC(=O)C(=O)Nc2ccc(Nc3nc(Cl)nc(Nc4ccc(S(=O)(=O)CCOS(=O)(=O)[O-])cc4)n3)cc2)cc1S(=O)(=O)[O-].[Na+].[Na+] [compound (102)], which SPF value [1] is on record?
The SPF value was “additional improvement”.

What about the SPF value [2] of the same compound?
Its SPF value is “additional improvement”.
